Source: US9683014B2, “Dipeptide mimetics of NGF and BDNF neurotrophins” (UCHREZHDENIE ROSSIISKOI AKADEMII MEDITSYNSKIKH NAUK …, priority 2009, dated 2017)
Marks after values point to notes of the source that are not given here.

Tests used:
PC12 cell line = experiment: Cellular model of Parkinson's disease (MPTP, MTT test); format: cell-based, rat
Procedure: To produce a model for Parkinson's disease, MPTP was used at a final concentration of 1 mM (Shimoke K., Chiba H. Nerve growth factor prevents 1-methyl-[…]-1,2,3,6-tetrahydropyridine-induced cell death via the Akt pathway by suppressing caspase-3-like activity using PC12 cells: relevance to therapeutic application for Parkinson's disease. J. Neurosci. Res. 2001, 63, 402-409). MPTP was added to the cell growth medium containing 1% FBS at 24 hours after passage. The peptides were added to the cell growth medium concurrently with MPTP or 24 h before MPTP. Cell viability was determined at 24 h using an MTT test.

HT-22 cells = tested on: HT-22 cells
Procedure: The determination of cell viability was carried out by MTT test. MTT is a water soluble tetrazolium salt of yellow color which readily permeates cells. In living cells, MTT is converted into water insoluble formazan crystals of violet color. At the end of an experiment the growth medium was replaced with an MTT solution (0.5 mg/ml) and incubated for 30 min at 37° C. and 5% CO2. The MTT solution was then removed from the wells and DMSO was added to dissolve the formazan precipitate. Then the optical density was measured using a Multiscan (Thermo) spectrophotometer at a wavelength of 600 nm.

[1] = tested on: rats with photothrombosis of the prefrontal cortex
Procedure: Male outbred rats weighing 180-200 g were used.
Experimental stages: surgery for photothrombosis, evaluation of motor activity (before and at 9 days after photothrombosis); PAR conditioning and the retention test at 9 days after photothrombosis; animal sacrifice, excision and fixation of the brain; morphologic examination and ischemic zone volume calculation.
The test substance was administered intraperitoneally at a dose of 1 mg/kg using the following regimen: at 1 h after surgery, at 24 h after the first administration, at 4 days and 6 days after the first administration.
PAR conditioning was performed according to the following protocol: The latency time (LT) was defined as the time between the start of testing and the moment of crossing the hole dividing the light and dark compartments. On day 1 the rat was placed in the light compartment (a 100 W light bulb) and, having explored it for a certain time (LT to learning), crossed into the dark compartment. Thereafter the door leading to this compartment was closed, and the rat was allowed to stay there for 5 min. One hour later the procedure was repeated by taking the rat out of the dark compartment. On the next day this procedure was repeated twice with a 1 h interval. During the second visit by the rat to the dark compartment the door was closed and electric current was passed through the metal bars in the floor (1.3 mA, 50 Hz, 5 sec). The PAR conditioning was considered established when the LT was at least 300 sec. Animals with lower LT values were excluded from the experiments.
A bilateral focal ischemic infarction of the prefrontal cortex of the rat brain (the Fr1 and Fr2 fields according to the atlas of Paxinos and Watson, 1986) was produced by the photoinduced thrombosis method (Watson et al., 1985). Animals were anesthetized with chloral hydrate (300 mg/kg i.p.). The photosensitive dye Bengal red (Sigma Chemical Co.) was injected into the jugular vein (3% solution, 40 mg/kg). The animal's head was clamped in the stereotaxis device, and the periosteum was removed after a longitudinal incision of the skin.
A light guide (the output light beam diameter 3 mm) was placed at a distance of 1 mm from the skull surface using the following coordinates: 2.00 mm rostral of the bregma and 2.00 mm lateral of the sagittal suture. Cold light illumination (a xenon lamp source, 25 V, 250 W) was carried out for 15 min at either side. Sham-operated animals were subjected to the same procedure except for the Bengal red injection. To assess their functional status, the animals were evaluated for their motor activity (MA) in a RODEO-1 automatic unit with an observation time of 5 min. The MA was analyzed before and at 9 days after the photothrombosis of the prefrontal cortex.

C57B1/6 mice = details: 1.0 mg/kg i.p. 24 h prior to MPTP 30 mg/kg i.p.; 60 min after MPTP; active control 8
Procedure: The test compound was administered intraperitoneally to male C57B1/6 mice weighing 22-25 g at a preselected dose of 1.0 mg/kg at 24 hours prior to the MPTP injection (30 mg/kg i.p.). The animals were placed in the open-field device 60 min after the MPTP injection. Animal's horizontal and vertical motor activities were monitored for 2 minutes. Passive control group was represented by animals treated with distilled water instead of MPTP. […] The treatment group was treated with GK-2 followed by MPTP. Statistical data treatment was carried out using the Mann-Whitney U-test.

[2] = tested on: rats with ischemic cerebral infarction

SMILES: NCCCC[C@H](NC(=O)[C@H](CCC(=O)O)NC(=O)CCC(=O)O)C(=O)NCCCCCCNC(=O)[C@H](CCCCN)NC(=O)[C@H](CCC(=O)O)NC(=O)CCC(=O)O [GK-2, bis-(N-monosuccinyl-glutamyl-lysine) hexamethylenediamide]
- protective effect against MPTP (PC12 cell line; added 24 hours prior to MPTP 1 mM): active at both 10^−5 M and 10^−8 M
- protective effect against MPTP (PC12 cell line; added concurrently with MPTP 1 mM, 10^−5 M and 10^−8 M tested): only at 10^−5 M
- Optical density (MTT) (HT-22 cells; 10^−8M, 24 h prior to glutamate, control 0.178 ± 0.010, glutamate 0.145 ± 0.013): 0.179 ± 0.007^
- protective effect against glutamate cytotoxicity (HT-22 cells; added 24 hours prior to glutamate): protective effect
- retention of the PAR ([1]; 1 mg/kg i.p.): 100%
- latency time of PAR, individual rats ([1]; 1 mg/kg i.p. at 1 h, 24 h, 4 and 6 days, at 8 days after photothrombosis, saline 20-105, sham 300): 300 s
- latency time of PAR, group mean ([1]; 1 mg/kg i.p., n = 9, saline 59.2, sham 300): 300 s
- latency time of PAR ([1]; 1 mg/kg i.p., photothrombosis alone 59.2 sec): at least 300 sec
- Number of sectors crossed (% of passive control) (C57B1/6 mice): 38*^+ % of passive control
- animals with swelling of the affected hemisphere ([2]; 1 mg/kg i.p. at 1, 24, 48 h post-ischemia, NMRT day 7, control group 46%): 9%
- mortality rate ([2]; 1 mg/kg i.p. at 1, 24, 48 h post-ischemia, control also 3): 3 animals
- ischemic lesion volume ([2]; 1 mg/kg i.p. x3, NMRT day 7, n=12, saline control 266±20): 222±16 mm^3
- reduction of lesion volume ([2]; 1 mg/kg i.p. x3, versus saline control): 16.5%
